Test results published in article PMC10708028, “Target Screen of Anti-Hyperuricemia Compounds from Cortex Fraxini In Vivo Based on ABCG2 and Bioaffinity Ultrafiltration Mass Spectrometry” (Molecules, 2023).

Target: T1, ABCG2 (Homo sapiens, UniProt Q9UNQ0)
T1 construct: Recombinant ABCG2
T1 sequence (Q9UNQ0 1-655): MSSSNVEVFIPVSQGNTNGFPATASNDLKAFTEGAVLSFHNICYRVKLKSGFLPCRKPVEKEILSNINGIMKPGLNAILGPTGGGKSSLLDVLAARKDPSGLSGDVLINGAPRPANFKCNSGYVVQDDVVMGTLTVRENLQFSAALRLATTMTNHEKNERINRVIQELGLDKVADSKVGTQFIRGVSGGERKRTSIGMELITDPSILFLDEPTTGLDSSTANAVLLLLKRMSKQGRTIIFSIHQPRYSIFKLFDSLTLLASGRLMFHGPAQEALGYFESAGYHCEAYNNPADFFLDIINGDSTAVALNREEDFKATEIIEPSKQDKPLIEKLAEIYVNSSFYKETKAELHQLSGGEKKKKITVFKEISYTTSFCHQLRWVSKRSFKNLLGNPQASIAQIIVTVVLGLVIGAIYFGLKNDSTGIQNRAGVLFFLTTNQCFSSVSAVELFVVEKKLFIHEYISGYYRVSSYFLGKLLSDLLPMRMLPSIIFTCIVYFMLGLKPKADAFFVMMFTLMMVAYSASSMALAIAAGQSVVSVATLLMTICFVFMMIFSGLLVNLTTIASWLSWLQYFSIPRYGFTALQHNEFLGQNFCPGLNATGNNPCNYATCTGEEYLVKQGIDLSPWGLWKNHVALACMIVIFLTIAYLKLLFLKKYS
Format: binding

## COc1cc2ccc(=O)oc2c(O[C@@H]2O[C@H](CO)[C@@H](O)[C@H](O)[C@H]2O)c1O [fraxin]
  Kd: 141 µM
